Data: BindingDB's records for doi:10.1016/s0968-0896(97)00172-7 (Universit&Agrave, 1997)
pKi: −log10 of the molar value.

How the values were obtained:
[1] = target: Adenosine receptor A2a (Rattus norvegicus, UniProt P30543)
[2] = target: T1, Adenosine receptor A1 (Rattus norvegicus, UniProt P25099)
T1 sequence (P25099 whole entry): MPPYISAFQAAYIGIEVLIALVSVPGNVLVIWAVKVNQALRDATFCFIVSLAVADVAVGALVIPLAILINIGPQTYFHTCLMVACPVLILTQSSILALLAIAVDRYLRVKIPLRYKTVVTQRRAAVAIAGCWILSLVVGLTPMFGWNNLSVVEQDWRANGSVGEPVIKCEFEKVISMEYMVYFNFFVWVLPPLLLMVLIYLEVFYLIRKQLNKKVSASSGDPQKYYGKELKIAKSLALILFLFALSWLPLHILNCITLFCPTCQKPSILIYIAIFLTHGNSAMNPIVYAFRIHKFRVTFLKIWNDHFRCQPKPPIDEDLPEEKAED

Chain of Adenosine receptor A2a (P30543 whole entry): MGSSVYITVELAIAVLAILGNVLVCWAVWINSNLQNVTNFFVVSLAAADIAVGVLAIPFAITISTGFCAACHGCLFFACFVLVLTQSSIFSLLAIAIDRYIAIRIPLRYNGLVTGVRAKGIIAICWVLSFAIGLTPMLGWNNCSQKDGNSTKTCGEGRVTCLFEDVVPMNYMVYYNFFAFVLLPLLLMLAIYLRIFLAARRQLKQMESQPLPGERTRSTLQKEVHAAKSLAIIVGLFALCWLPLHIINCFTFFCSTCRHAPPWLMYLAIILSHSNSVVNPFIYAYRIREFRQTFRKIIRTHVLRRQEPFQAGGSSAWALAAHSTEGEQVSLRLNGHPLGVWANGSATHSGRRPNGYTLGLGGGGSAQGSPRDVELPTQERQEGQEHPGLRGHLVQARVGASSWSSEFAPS

| pKi [1] | pKi [2] | SMILES |
| --- | --- | --- |
| 8.59 | 8.23 | CCNC(=O)[C@H]1OC(n2cnc3c(N)nc(C#CC(O)c4ccccc4)nc32)[C@@H](O)[C@H]1O (stereo partly drawn) [5-[6-Amino-2-(3-hydroxy-3-phenyl-prop-1-ynyl)-purin-9-yl]-3,4-dihydroxy-tetrahydro-furan-2-carboxylic acid ethylamide] |
| 8.66 | 6.89 | CCCCC#Cc1nc(N)c2ncn([C@@H]3O[C@H](C(=O)NCC)[C@H](O)C3O)c2n1 (stereo partly drawn) [(2S,3R,5R)-5-[6-amino-2-(hex-1-yn-1-yl)-9H-purin-9-yl]-N-ethyl-3,4-dihydroxyoxolane-2-carboxamide] |
| 9.05 | 8.60 | CCNC(=O)C1OC(n2cnc3c(N)nc(C#CC(O)c4ccccc4)nc32)C(O)C1O (stereo not drawn) [R,S-PHPNECA] |
| 9.30 | 8.40 | CCNC(=O)[C@@H]1OC(n2cnc3c(N)nc(C#CC(O)c4ccccc4)nc32)[C@H](O)[C@@H]1O (stereo partly drawn) [S-PHPNECA] |
